Results on nine compounds are retold here after US20220280542A1, “PHOSPHORAMIDATES FOR THE TREATMENT OF HEPATITIS B VIRUS” (priority 2016, published 2022).

A value given as a limit tells only on which side of the number the result lay.

Common to all, as to type: cell-based
Series [1] can be described thus: Cytotoxicity (CC50) HepG2. Conditions: human, HepG2 cells.
A short description of series [2]: Cytotoxicity by XTT staining in the HBV efficacy assay. Conditions: human, HepG2.2.15 cells. As for the experimental part: HepG2.2.15 cells (100 μL) in RPMI1640 medium with 10% fetal bovine serum was added to all wells of a 96-well plate at a density of 1×10^4 cells per well and the plate was incubated at 37° C. in an environment of 5% CO2 for 24 hours. Following incubation, six ten-fold serial dilutions of test compound prepared in RPMI1640 medium with 10% fetal bovine serum were added to individual wells of the plate in triplicate. Six wells in the plate received medium alone as a virus only control. The plate was incubated for 6 days at 37° C. in an environment of 5% CO2. The culture medium was changed on day 3 with medium containing the indicated concentration of each compound. One hundred microliters of supernatant was collected from each well for analysis of viral DNA by qPCR and cytotoxicity was evaluated by XTT staining of the cell culture monolayer on the sixth day.
The 50% cytotoxic concentration for the test materials are derived by measuring the reduction of the tetrazolium dye XTT in the treated tissue culture plates. XTT is metabolized by the mitochondrial enzyme NADPH oxidase to a soluble formazan product in metabolically active cells. XTT solution was prepared daily as a stock of 1 mg/mL in PBS. Phenazine methosulfate (PMS) stock solution was prepared at 0.15 mg/mL in PBS and stored in the dark at −20° C. XTT/PMS solution was prepared immediately before use by adding 40 μL of PMS per 1 mL of XTT solution. Fifty microliters of XTT/PMS was added to each well of the plate and the plate incubated for 2-4 hours at 37° C. The 2-4 hour incubation has been empirically determined to be within linear response range for XTT dye reduction with the indicated numbers of cells for each assay. Adhesive plate sealers were used in place of the lids, the sealed plate was inverted several times to mix the soluble formazan product and the plate was read at 450 nm (650 nm reference wavelength) with a Molecular Devices SpectraMax Plus 384 spectrophotometer. Data were collected by Softmax 4.6 software and imported into an Excel spreadsheet for analysis.
(In general: Tetrazolium dyes change colour on reduction, which living cells bring about.)

A further series is described as follows: Cytotoxicity (CC50) CEM. Conditions: human, CEM cells.
A further series is described as follows: Cytotoxicity (CC50) H9c. Particulars: rat, H9c cells.
A short description of series [3]: Cytotoxicity (CC50) BxPC3. Conditions: human, BxPC3 cells.
Series [4] in a line: Cytotoxicity (CC50) IEC-6. Conditions: rat, IEC-6 cells.
The next series can be described thus: Cytotoxicity (CC50) Vero. Conditions: African green monkey, Vero cells.
The next series in a line: Cytotoxicity (CC50) A549. Conditions: human, A549 cells.
Another series in a line: Cytotoxicity (CC50) A204. Conditions: human, A204 cells.
Series [5] is described as follows: Cytotoxicity (CC50) Huh-7. Particulars: human, Huh-7 cells.

Usually CC50 stands for the concentration that lowers cell viability or growth by half. Take `Cc1cn([C@H]2O[C@@H](CO[P@@](=O)(N[C@@H](C)C(=O)OC(C)C)Oc3ccccc3)[C@H](O)[C@H]2F)c(=O)[nH]c1=O` [EIDD-02173]: the cytotoxic concentration (CC50) in series [1] was above 400 µM; in “Cytotoxicity (CC50) CEM”, 140 µM; in “Cytotoxicity (CC50) H9c”, 344 µM; in series [3] it was above 400 µM; in series [4] it was 307 µM; in the series “Cytotoxicity (CC50) Vero”, above 400 µM. The CC50 was above 400 µM in “Cytotoxicity (CC50) A549”, 330 µM in “Cytotoxicity (CC50) A204” and above 400 µM in series [5]. In [2], this compound gave a CC50 at 6 days above 100 µM.
For `Cc1cn([C@H]2O[C@@H](CO[P@](=O)(N[C@@H](C)C(=O)OC(C)C)Oc3ccccc3)[C@H](O)[C@H]2F)c(=O)[nH]c1=O` [EIDD-02174], the CC50 in series [1] is above 400 µM; in the series “Cytotoxicity (CC50) CEM”, above 400 µM; in the series “Cytotoxicity (CC50) H9c” it was 311 µM; in series [3], above 400 µM; in series [4], 338 µM; in the series “Cytotoxicity (CC50) Vero”, above 400 µM. The CC50 in the series “Cytotoxicity (CC50) A549” was above 400 µM; in “Cytotoxicity (CC50) A204” it was 374 µM; in [5] it was 290 µM. Also, the CC50 at 6 days in [2] was above 100 µM.
`Cc1cn([C@H]2O[C@@H](CO[P@](=O)(N[C@@H](C)C(=O)OC(C)C)Oc3ccccc3)[C@H](O[P@](=O)(N[C@@H](C)C(=O)OC(C)C)Oc3ccccc3)[C@H]2F)c(=O)[nH]c1=O` [EIDD-02309] returned a CC50 at 6 days in series [2] of 85.1 µM.
Same read-out and setting: under `Cc1cn([C@H]2O[C@@H](CO[P@@](=O)(N[C@@H](C)C(=O)OC(C)C)Oc3ccccc3)[C@H](O[P@@](=O)(N[C@@H](C)C(=O)OC(C)C)Oc3ccccc3)[C@H]2F)c(=O)[nH]c1=O` [EIDD-02308] stands above 100 µM.
As for `Cc1cn([C@H]2O[C@@H](CO)[C@H](O)[C@H]2F)c(=O)[nH]c1=O` [EIDD-02020, Clevudine, reference compound], the CC50 (in [1]; in “Cytotoxicity (CC50) CEM”; in “Cytotoxicity (CC50) H9c”; in series [3]; in series [4]; in the series “Cytotoxicity (CC50) Vero”) was above 400 µM throughout. Further, the CC50 (in the series “Cytotoxicity (CC50) A549”; in the series “Cytotoxicity (CC50) A204”; in [5]) was above 400 µM in each case. This compound gave a CC50 at 6 days in series [2] above 100 µM.
In series [2], `Cc1cn([C@H]2O[C@@H](CO[P@@](=O)(N[C@@H](C)C(=O)OC(C)C)Oc3ccccc3)C(O)C2F)c(=S)[nH]c1=O` (stereo partly drawn) [EIDD-02335-1] had a CC50 at 6 days above 100 µM.
On to `Nc1ccn([C@@H]2CS[C@H](CO)O2)c(=O)n1` [3TC (Lamivudine), Lamivudine, reference compound], for which the CC50 in [1], in series [3] and in [5] was above 400 µM each time. Besides, in series [2], the CC50 at 6 days was above 10 µM.
`Cc1cn([C@H]2O[C@@H](CO)C(O)C2F)c(=S)[nH]c1=O` (stereo partly drawn) [EIDD-02333-1] had a CC50 at 6 days in [2] above 100 µM.
The same measure, in the same setting: next, `Cc1cn([C@H]2O[C@@H](CO[P@](=O)(N[C@@H](C)C(=O)OC(C)C)Oc3ccccc3)C(O)C2F)c(=S)[nH]c1=O` (stereo partly drawn) [EIDD-02334-1]: above 100 µM.
